Measured values as given in patent US20250312462A1, “PAK1 DEGRADERS AND METHODS OF USE THEREOF” (INSTITUTE FOR CANCER RESEARCH D/B/A THE RESEARCH INSTITUTE …, priority 2022, published 2025).

Key:
Experiment in all cases: KINOMEscan
Settings in all cases: read-out: Percent Control
BRSK2 = BRSK2 (Homo sapiens, UniProt Q8IWQ3)
Protocol: (§1) The kinase engagement assay (KINOMEscan®) was performed by DiscoverX assessing binding abilities toward a set of kinases.

TBK1 = TBK1 (Homo sapiens, UniProt Q9UHD2)
Protocol: as §1

CDK3 = CDK3 (Homo sapiens, UniProt Q00526)
Protocol: as §1

CDK4 = CDK4 (Homo sapiens, UniProt P11802)
Protocol: as §1

MET(M1250T) = MET(M1250T) (Homo sapiens, UniProt P08581, M1250T)
Protocol: as §1

NEK3 = NEK3 (Homo sapiens, UniProt P51956)
Protocol: as §1

YANK3 = YANK3 (Homo sapiens, UniProt Q86UX6)
Protocol: as §1

ABL1-phosphorylated = ABL1-phosphorylated (Homo sapiens, UniProt P00519)
Protocol: as §1

CDK8 = CDK8 (Homo sapiens, UniProt P49336)
Protocol: as §1

CSNK1G3 = CSNK1G3 (Homo sapiens, UniProt Q9Y6M4)
Protocol: as §1

SGK = SGK (Homo sapiens, UniProt O00141)
Protocol: as §1

PLK1 = PLK1 (Homo sapiens, UniProt P53350)
Protocol: as §1

CAMK1G = CAMK1G (Homo sapiens, UniProt Q96NX5)
Protocol: as §1

ICK = ICK (Homo sapiens, UniProt Q9UPZ9)
Protocol: as §1

BRAF(V600E) = BRAF(V600E) (Homo sapiens, UniProt P15056, V600E)
Protocol: as §1

EPHB6 = EPHB6 (Homo sapiens, UniProt O15197)
Protocol: as §1

FLT3(D835H) = FLT3(D835H) (Homo sapiens, UniProt P36888, D835H)
Protocol: as §1

IRAK4 = IRAK4 (Homo sapiens, UniProt Q9NWZ3)
Protocol: as §1

DAPK1 = DAPK1 (Homo sapiens, UniProt P53355)
Protocol: as §1

SGK3 = SGK3 (Homo sapiens, UniProt Q96BR1)
Protocol: as §1

NEK11 = NEK11 (Homo sapiens, UniProt Q8NG66)
Protocol: as §1

p38-delta = p38-delta (Homo sapiens, UniProt O15264)
Protocol: as §1

NIM1 = NIM1 (Homo sapiens, UniProt Q8IY84)
Protocol: as §1

PIP5K2C = PIP5K2C (Homo sapiens, UniProt Q8TBX8)
Protocol: as §1

PCTK1 = PCTK1 (Homo sapiens, UniProt Q00536)
Protocol: as §1

DYRK2 = DYRK2 (Homo sapiens, UniProt Q92630)
Protocol: as §1

[1] = target: RPS6KA4(Kin.Dom.2-C-terminal) (Homo sapiens, UniProt O75676)
Protocol: as §1

CSNK1A1L = CSNK1A1L (Homo sapiens, UniProt Q8N752)
Protocol: as §1

PIK3CG = PIK3CG (Homo sapiens, UniProt P48736)
Protocol: as §1

RET(V804L) = RET(V804L) (Homo sapiens, UniProt P07949, V804L)
Protocol: as §1

PKN2 = PKN2 (Homo sapiens, UniProt Q16513)
Protocol: as §1

MAP3K15 = MAP3K15 (Homo sapiens, UniProt Q6ZN16)
Protocol: as §1

FLT3 = FLT3 (Homo sapiens, UniProt P36888)
Protocol: as §1

IRAK3 = IRAK3 (Homo sapiens, UniProt Q9Y616)
Protocol: as §1

CHEK1 = CHEK1 (Homo sapiens, UniProt O14757)
Protocol: as §1

ACVR1 = ACVR1 (Homo sapiens, UniProt Q04771)
Protocol: as §1

PKNB(M. tuberculosis) = target: T1, PKNB(M. tuberculosis) (Mycobacterium tuberculosis, UniProt P9WI81); assay type: binding
T1 construct: purchased DiscoverX

PIK3CB = PIK3CB (Homo sapiens, UniProt P42338)
Protocol: as §1

NIM1, sequence (Q8IY84 whole entry): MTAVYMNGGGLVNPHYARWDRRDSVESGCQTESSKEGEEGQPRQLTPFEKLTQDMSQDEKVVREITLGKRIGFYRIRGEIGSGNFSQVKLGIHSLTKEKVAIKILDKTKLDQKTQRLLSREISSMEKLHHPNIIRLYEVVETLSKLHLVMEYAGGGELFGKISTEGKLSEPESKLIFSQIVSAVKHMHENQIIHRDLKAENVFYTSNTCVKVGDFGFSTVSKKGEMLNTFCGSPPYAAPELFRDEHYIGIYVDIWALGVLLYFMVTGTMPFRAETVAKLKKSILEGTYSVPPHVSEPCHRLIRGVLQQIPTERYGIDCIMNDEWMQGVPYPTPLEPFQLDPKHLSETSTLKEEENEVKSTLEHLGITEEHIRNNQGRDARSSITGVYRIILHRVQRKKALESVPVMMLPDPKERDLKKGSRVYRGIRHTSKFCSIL
CDK8, sequence (P49336 whole entry): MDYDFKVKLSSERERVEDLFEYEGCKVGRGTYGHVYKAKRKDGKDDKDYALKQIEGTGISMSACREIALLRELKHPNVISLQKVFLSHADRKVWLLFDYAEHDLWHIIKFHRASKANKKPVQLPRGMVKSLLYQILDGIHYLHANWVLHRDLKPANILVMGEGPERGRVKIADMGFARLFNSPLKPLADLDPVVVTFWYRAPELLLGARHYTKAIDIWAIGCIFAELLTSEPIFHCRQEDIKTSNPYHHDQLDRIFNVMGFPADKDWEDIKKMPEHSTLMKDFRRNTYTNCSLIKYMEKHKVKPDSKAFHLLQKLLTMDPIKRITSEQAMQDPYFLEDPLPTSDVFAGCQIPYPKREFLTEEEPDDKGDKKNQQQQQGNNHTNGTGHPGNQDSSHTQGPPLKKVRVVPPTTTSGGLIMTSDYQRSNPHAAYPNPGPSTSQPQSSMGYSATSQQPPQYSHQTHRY
CDK4, sequence (P11802 whole entry): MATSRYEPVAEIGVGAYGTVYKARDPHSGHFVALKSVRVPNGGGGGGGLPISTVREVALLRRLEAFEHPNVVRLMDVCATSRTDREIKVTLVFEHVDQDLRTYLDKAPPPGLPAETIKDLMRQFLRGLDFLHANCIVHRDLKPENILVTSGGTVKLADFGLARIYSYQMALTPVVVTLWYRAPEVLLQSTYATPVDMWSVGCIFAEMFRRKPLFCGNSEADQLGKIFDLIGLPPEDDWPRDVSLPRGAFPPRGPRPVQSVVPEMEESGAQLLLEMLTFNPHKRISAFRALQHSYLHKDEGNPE
CDK3, sequence (Q00526 whole entry): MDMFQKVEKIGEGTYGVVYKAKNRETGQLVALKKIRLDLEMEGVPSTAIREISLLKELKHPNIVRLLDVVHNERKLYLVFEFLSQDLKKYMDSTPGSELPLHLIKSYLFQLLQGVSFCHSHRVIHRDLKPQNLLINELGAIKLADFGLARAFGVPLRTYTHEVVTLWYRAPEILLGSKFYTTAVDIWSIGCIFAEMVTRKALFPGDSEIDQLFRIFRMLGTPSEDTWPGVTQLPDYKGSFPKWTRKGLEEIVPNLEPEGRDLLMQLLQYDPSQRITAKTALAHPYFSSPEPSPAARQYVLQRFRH
YANK3, sequence (Q86UX6 whole entry): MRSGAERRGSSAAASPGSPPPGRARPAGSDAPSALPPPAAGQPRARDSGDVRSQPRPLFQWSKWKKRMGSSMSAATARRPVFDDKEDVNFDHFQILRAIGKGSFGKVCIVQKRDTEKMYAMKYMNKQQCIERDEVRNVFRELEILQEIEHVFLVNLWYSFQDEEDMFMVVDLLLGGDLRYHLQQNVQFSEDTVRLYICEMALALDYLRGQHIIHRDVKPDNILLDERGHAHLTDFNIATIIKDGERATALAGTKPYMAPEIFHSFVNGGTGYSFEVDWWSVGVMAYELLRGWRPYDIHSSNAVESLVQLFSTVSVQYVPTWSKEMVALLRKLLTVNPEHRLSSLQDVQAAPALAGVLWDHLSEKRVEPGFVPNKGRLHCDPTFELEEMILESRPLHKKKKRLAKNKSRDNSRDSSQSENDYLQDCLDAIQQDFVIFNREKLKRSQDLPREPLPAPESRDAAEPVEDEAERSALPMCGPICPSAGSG
SGK3, sequence (Q96BR1 whole entry): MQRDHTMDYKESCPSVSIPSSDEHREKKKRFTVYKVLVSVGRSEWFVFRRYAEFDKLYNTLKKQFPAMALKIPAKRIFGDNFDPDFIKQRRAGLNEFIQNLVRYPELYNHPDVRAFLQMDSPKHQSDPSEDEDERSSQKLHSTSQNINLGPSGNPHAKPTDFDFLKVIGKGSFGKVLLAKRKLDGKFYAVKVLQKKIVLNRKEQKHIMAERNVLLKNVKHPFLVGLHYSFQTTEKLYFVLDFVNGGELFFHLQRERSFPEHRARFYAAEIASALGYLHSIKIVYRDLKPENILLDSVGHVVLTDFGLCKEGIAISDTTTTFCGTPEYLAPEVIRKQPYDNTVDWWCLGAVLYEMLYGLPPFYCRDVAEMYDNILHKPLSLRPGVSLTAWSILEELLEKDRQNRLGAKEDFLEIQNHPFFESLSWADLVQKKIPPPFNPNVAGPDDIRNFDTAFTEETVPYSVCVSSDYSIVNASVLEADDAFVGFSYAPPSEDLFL
MET(M1250T), sequence (P08581 25-1390 M1250T): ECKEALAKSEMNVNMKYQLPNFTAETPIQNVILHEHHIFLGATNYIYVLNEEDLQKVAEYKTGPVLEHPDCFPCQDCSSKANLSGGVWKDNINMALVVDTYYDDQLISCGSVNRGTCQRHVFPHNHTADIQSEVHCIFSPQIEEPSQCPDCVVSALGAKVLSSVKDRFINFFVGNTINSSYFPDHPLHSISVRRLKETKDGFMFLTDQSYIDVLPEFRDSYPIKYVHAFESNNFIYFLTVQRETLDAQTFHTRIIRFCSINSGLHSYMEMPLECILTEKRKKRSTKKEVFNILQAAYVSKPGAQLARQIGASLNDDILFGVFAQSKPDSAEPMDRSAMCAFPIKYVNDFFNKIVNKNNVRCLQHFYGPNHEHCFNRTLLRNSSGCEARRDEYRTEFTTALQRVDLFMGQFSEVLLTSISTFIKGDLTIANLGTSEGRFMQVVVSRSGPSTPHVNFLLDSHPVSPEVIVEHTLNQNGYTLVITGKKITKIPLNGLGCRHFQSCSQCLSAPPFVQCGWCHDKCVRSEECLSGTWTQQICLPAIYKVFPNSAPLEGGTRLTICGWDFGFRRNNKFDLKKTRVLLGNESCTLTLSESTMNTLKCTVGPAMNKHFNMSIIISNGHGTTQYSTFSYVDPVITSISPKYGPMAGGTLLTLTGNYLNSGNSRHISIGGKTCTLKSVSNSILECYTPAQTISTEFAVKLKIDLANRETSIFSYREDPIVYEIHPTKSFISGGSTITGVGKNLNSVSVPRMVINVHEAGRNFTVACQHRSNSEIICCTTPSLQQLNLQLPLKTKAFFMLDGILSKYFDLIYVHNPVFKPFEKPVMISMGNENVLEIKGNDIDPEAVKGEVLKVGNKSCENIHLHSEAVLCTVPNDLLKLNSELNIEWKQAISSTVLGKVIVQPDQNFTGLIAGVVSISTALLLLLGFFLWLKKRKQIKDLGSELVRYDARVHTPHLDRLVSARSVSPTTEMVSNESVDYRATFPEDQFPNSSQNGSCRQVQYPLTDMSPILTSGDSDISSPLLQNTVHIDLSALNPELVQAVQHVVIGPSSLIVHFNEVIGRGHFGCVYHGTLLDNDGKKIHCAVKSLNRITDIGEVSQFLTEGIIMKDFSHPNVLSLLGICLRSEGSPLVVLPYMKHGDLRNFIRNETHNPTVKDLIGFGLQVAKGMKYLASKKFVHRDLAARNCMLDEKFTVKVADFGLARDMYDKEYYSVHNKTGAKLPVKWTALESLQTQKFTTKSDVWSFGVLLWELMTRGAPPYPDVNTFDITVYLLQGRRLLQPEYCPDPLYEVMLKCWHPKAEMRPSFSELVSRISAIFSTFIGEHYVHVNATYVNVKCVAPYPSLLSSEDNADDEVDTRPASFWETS
BRSK2, sequence (Q8IWQ3 whole entry): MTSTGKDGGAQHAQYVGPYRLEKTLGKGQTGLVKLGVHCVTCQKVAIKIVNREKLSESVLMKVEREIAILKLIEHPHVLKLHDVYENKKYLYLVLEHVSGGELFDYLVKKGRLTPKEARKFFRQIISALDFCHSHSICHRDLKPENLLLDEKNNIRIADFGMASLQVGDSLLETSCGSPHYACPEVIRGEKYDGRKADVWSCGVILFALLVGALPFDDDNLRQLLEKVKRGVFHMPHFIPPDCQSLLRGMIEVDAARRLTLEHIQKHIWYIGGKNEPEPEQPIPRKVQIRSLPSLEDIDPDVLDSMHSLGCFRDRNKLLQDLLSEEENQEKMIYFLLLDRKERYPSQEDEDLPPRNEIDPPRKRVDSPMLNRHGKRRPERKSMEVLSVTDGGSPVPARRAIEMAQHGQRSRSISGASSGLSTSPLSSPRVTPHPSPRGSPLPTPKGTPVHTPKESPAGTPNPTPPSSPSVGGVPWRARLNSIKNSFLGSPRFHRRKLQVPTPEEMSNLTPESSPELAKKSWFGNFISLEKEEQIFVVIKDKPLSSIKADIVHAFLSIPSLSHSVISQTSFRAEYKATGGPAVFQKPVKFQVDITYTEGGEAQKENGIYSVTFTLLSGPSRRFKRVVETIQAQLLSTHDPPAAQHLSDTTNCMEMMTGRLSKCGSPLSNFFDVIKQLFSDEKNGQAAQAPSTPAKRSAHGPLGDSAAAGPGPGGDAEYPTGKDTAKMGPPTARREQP
SGK, sequence (O00141 whole entry): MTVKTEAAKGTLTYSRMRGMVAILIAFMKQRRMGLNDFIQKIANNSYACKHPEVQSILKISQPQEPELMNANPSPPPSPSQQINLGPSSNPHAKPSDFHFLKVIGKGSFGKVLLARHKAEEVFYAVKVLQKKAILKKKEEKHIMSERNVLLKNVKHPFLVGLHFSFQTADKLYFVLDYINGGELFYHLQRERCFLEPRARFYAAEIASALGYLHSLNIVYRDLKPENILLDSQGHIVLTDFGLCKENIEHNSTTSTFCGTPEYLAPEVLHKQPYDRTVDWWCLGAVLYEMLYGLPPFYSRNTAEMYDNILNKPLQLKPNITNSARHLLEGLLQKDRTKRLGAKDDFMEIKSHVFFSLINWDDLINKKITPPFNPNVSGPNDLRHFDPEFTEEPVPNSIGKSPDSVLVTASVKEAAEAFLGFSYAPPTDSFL

Structure (SMILES): O=C1CCC(N2C(=O)c3cccc(NCCCCCCCCNC(=O)N4CC[C@H](NC5=Nc6cc(F)ccc6N(CC(F)F)c6ccc(Cl)cc65)C4)c3C2=O)C(=O)N1 (stereo partly drawn) [BJG-05-039, (3S)-3-((2-Chloro-5-(2,2-difluoroethyl)-8-fluoro-5H-dibenzo[b,e][1,4]diazepin-11-yl)amino)-N-(8-((2-(2,6-dioxopiperidin-3-yl)-1,3-dioxoisoindolin-4-yl)amino)octyl)pyrrolidine-1-carboxamide]
- remaining binding at 10 µM (BRSK2): 99%
- remaining binding at 10 µM (TBK1): 100%
- remaining binding at 10 µM (CDK3): 74%
- remaining binding at 10 µM (CDK4): 86%
- remaining binding at 10 µM (MET(M1250T)): 61%
- remaining binding at 10 µM (NEK3): 100%
- remaining binding at 10 µM (YANK3): 72%
- remaining binding at 10 µM (ABL1-phosphorylated): 100%
- remaining binding at 10 µM (CDK8): 80%
- remaining binding at 10 µM (CSNK1G3): 63%
- remaining binding at 10 µM (SGK): 100%
- remaining binding at 10 µM (PLK1): 82%
- remaining binding at 10 µM (CAMK1G): 63%
- remaining binding at 10 µM (ICK): 99%
- remaining binding at 10 µM (BRAF(V600E)): 100%
- remaining binding at 10 µM (EPHB6): 97%
- remaining binding at 10 µM (FLT3(D835H)): 83%
- remaining binding at 10 µM (IRAK4): 100%
- remaining binding at 10 µM (DAPK1): 47%
- remaining binding at 10 µM (SGK3): 88%
- remaining binding at 10 µM (NEK11): 100%
- remaining binding at 10 µM (p38-delta): 92%
- remaining binding at 10 µM (NIM1): 89%
- remaining binding at 10 µM (PIP5K2C): 100%
- remaining binding at 10 µM (PCTK1): 97%
- remaining binding at 10 µM (DYRK2): 89%
- remaining binding at 10 µM [1]: 99%
- remaining binding at 10 µM (CSNK1A1L): 83%
- remaining binding at 10 µM (PIK3CG): 77%
- remaining binding at 10 µM (RET(V804L)): 99%
- remaining binding at 10 µM (PKN2): 65%
- remaining binding at 10 µM (MAP3K15): 99%
- remaining binding at 10 µM (FLT3): 53%
- remaining binding at 10 µM (IRAK3): 55%
- remaining binding at 10 µM (CHEK1): 57%
- remaining binding at 10 µM (ACVR1): 89%
- remaining binding at 10 µM (PKNB(M. tuberculosis)): 72%
- remaining binding at 10 µM (PIK3CB): 100%
